Biological target: T1, cis-aconitate decarboxylase (CAD) (Aspergillus terreus, UniProt Q0C8L3)
T1 construct: Partial Purification of CAD from Itaconic Acid Producing A. Terreus; endogenous in cells; host or cells: Aspergillus terreus NRRL 1960 mycelium (cell free extract)
Test: Effect of the addition of stabilizing compounds on the CAD activity
Assay type: biochemical, Aspergillus terreus NRRL 1960
Settings: * final concentration of 20 mM, PEG 20% w/v; for CAD activity after 48 h: stabilizer added to buffer; for Initial CAD Activity: stabilizer added to buffer of A. terreus cell free extract
Procedure: The enzyme activity determination was essentially as described (Bentley et al., 1957 supra; Dwiarti et al., 2002, J Biosci Bioeng 94(1):29-33). 800 μl of 0.2 M sodium phosphate pH 6.5 was mixed with 100 μl 10 mM cis-aconitic acid and 100 μl protein solution and incubated for 20 till 60 min at 37° C. The reaction was stopped by the addition of 100 μl 12 M HCl. The amount of itaconic acid formed was determined by isocratic chromatography in 4 mM sulphuric acid on Bio-Rad Aminex HPX-87H column in a Dionex HPLC equipped with an UV detector at 215 nm. Calibration of the signal was accomplished by running a known amount of itaconic acid in a separate run. One unit (U) is one μmol of itaconic acid formed per minute. The same chromatographic assay was used to monitor the amount of itaconic acid formed in the broth of shake flasks or fermenter cultures as being indicative for cis-aconitate decarboxylase (CAD) induction. The protein concentration was measured according to Bradford with the Bio-Rad protein assay (Bradford, Anal Biochem 1976; 72:248-54).
Approximately 1 g of frozen mycelium was transferred to a Teflon vessel and grinded with a metal ball for one minute using a dismembrator (Braun-Melsungen, Germany). Multiple batches of the powdered mycelium were resuspended in 10 ml 0.2 M sodium phosphate buffer pH 6.5 containing 1 mM DTT and 1 mM EDTA and allowed to hydrate at 0° C. for thirty minutes while mixing and centrifuged at 15000 g for 30 minutes at 4° C. to obtain the CFE.
In the purification of CAD the inherent instability of the protein was noticed. […] To overcome this problem we adapted the purification method by the addition of potential stabilizers to the buffers (Table 2).

[1] = after 48 h relative to initial CAD activity

T1 sequence (Q0C8L3 whole entry): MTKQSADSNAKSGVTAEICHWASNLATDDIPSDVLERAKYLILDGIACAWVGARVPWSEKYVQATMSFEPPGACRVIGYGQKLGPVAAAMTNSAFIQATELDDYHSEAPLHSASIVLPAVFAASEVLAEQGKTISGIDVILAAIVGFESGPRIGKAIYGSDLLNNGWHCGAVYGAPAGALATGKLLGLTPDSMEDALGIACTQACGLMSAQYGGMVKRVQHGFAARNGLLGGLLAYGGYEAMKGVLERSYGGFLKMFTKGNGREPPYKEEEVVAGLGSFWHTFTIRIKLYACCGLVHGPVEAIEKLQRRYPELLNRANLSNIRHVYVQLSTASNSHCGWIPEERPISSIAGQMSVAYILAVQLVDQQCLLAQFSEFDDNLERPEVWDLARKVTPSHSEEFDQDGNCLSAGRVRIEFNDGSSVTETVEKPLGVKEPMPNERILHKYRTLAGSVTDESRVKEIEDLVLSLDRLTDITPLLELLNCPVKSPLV

Row | Structure (SMILES) | CAD activity after 48 h | Remaining activity [1] | Initial CAD Activity | remaining activity at 20000 µM [1]
1 | O=S([O-])[O-].[Na+].[Na+] [Na2SO3] | 1.30 U/mL | 88% | 1.48 U/mL | –
2 | O=C(O)c1ccccc1 [Benzoate] | 0.43 U/mL | 32% | 1.36 U/mL | –
3 | O=C1O[C@H]([C@@H](O)CO)C(O)=C1O [Ascorbic Acid] | 0.19 U/mL | – | 1.36 U/mL | 14%

Reference: US20110099670A1, “[…] CODING FOR CIS-ACONITIC DECARBOXYLASE AND USE THEREOF” (priority 2008, published 2011)
